Literature values in article PMC4461526 (Bioorganic & medicinal chemistry, 2015).

Legend:
Human ABCC2 [1] = target: T1, Human ABCC2 (Homo sapiens, UniProt Q92887); conditions: ref 30 (Kidron et al.); for IC50: read-out: IC50 (inhibitors of EG)
Human ABCC2 [2] = target: T1, Human ABCC2; conditions: ref 30 (Kidron et al.)

T1 sequence (Q92887 whole entry): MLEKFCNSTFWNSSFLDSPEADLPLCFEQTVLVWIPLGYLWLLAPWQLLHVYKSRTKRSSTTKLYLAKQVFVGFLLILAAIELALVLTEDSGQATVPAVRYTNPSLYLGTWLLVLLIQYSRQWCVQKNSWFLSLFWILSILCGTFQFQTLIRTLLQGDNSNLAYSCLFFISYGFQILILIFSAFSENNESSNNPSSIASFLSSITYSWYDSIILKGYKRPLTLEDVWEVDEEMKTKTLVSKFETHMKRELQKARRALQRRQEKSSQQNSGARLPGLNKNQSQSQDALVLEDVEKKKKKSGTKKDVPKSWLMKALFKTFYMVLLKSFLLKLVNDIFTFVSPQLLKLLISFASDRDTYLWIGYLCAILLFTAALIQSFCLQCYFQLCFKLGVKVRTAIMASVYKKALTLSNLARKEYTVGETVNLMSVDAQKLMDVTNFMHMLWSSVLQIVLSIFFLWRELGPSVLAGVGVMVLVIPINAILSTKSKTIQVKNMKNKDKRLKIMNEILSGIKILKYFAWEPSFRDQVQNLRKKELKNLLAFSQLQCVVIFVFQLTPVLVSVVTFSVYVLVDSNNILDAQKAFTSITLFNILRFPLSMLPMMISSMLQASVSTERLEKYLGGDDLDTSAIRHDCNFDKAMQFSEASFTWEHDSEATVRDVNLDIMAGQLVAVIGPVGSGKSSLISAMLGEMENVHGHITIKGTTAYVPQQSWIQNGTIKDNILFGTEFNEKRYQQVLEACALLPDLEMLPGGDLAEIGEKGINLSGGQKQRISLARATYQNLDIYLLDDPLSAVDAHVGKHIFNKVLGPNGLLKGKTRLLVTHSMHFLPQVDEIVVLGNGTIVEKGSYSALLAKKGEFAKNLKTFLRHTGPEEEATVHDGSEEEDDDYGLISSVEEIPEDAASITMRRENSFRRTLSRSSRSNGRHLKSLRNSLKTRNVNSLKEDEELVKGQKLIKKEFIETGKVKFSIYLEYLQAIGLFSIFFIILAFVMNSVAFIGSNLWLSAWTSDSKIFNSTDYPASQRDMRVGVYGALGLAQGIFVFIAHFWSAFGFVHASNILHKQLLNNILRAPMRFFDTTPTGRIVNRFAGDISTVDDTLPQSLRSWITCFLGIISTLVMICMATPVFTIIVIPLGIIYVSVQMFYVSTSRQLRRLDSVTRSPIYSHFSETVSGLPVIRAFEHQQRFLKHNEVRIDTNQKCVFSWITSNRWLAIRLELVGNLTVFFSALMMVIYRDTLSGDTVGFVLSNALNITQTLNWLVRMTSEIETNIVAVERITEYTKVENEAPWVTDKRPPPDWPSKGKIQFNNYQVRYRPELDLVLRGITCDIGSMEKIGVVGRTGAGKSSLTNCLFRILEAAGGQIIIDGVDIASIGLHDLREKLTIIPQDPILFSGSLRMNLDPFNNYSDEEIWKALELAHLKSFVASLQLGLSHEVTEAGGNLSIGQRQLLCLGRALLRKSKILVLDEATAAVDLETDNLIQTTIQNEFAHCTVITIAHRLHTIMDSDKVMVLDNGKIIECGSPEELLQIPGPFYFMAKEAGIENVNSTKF

Row | IC50 (Human ABCC2 [1]) [µM] | effect on CDCF transport (Human ABCC2 [2]) | effect on EG transport (Human ABCC2 [1]) | Structure (SMILES)
1 | 40 to 60 | stimulating | – | CCCC1O[C@@H]2C[C@H]3[C@@H]4CCC5=CC(=O)C=C[C@]5(C)[C@H]4[C@@H](O)C[C@]3(C)[C@]2(C(=O)CO)O1 (stereo partly shown) [budes-onide]
2 | 40 to 60 | stimulating | – | CSc1ccc2c(c1)N(CCC1CCCCN1C)c1ccccc1S2 (stereo not shown) [thioridazine]
3 | – | – | stimulators | COc1ccc2c(c1)c(CC(=O)O)c(C)n2C(=O)c1ccc(Cl)cc1 [indomethacin]
4 | – | – | stimulators | C[C@]12CC[C@@H]3c4ccc(OS(=O)(=O)O)cc4CC[C@H]3[C@@H]1CCC2=O [estrone-3-sulfate]
5 | – | – | stimulators | O=C(O)Cc1ccccc1Nc1c(Cl)cccc1Cl [diclofenac]
